The values below come from patent publication US20210338652A1, “COMPOSITION AND USE FOR THE TREATMENT OF PARKINSON'S DISEASE AND RELATED DISORDERS” (CHASE THERAPEUTICS CORPORATION, priority 2018, published 2021).

The conditions of data set [1]: in vivo; cited from earlier work.
Another data set deals with humans. The following applies: for Maximal Tolerated Dose (MTD): oral pramipexole escalation to max 6 mg, ondansetron 8 mg or aprepitant 80 mg where combined.

Where two headings read alike, the source gives them in different places.

Description for humans: The ability of a 5HT3-antagonist and of a NK1-antagonist for preventing the adverse effects of a DA-agonist in humans was tested.
To be enrolled in the study, participants the following inclusion/exclusion key criteria:
• 1. Male and female subjects aged 20-45 years old both ages included. • 2. Females of childbearing potential must agree to be abstinent or else use any two of the following medically acceptable forms of contraception from the Screening Period through 14 days after the study Exit Visit: condom with spermicidal jelly, diaphragm or cervical cap with spermicidal jelly, or intrauterine device (IUD). […] Subjects must agree to practice the above birth control methods for 14 days after the final visit as a safety precaution. • 3. […] The reason must be documented in the source documents. • 4. […] Males with female partners of childbearing potential who themselves are surgically sterile (status post vasectomy) must agree to use condoms with spermicide over the same period of time. Male subjects must agree to practice the above birth control methods for 14 days after the final visit as a safety precaution. • 5. Subjects must be in good health as determined by their medical history including personal and family psychiatric history and results of physical examination, electrocardiogram (ECG), vital signs, and laboratory tests. A subject with a medical abnormality may be included only if the investigator or designee considers that the abnormality will not introduce significant additional risk to the subject's health or interfere with study objectives. • 6. Subjects must be able to clearly and reliably communicate changes in their medical condition. • 7. Subjects with a body mass index (BMI) between 19.0 and 32.0 kg/m^2 (both inclusive). • 8. Subjects able to swallow multiple pills or capsules simultaneously. • 9.
The criteria for exclusion of a subject from enrollment in the study were as follows: • 1. Any clinically relevant acute or chronic diseases, which could interfere with the subjects' safety during the trial, expose them to undue risk, or interfere with the study objectives. • 2. History or presence of gastrointestinal, hepatic, or renal disease or other condition known to interfere with the absorption, distribution, metabolism or excretion of the study drugs. • 3. History of substance abuse, known drug addiction, or positive test for drugs of abuse or alcohol. • 4. History of drug or other significant allergy. • 5. […] History of and/or current QT interval prolongation, congenital long QT syndrome, electrolyte abnormalities (e.g., hypokalemia or hypomagnesemia), congestive heart failure, bradyarrhythmias or other medicinal products that lead to QT prolongation or 1st degree AV block at Screening, Day−1, or pre-dose, ≥450 QTcF for males and ≥470 QTcF for females. • 7. […] Tobacco or nicotine users (except subjects who stopped using tobacco or nicotine 1 year or more before enrollment in the study). • 9. Excessive daily consumption of xanthines containing drinks (i.e. >500 mg/day of caffeine). • 10. Subjects unwilling to curtail prolonged intensive physical exercise during the study conduct (from the Screening visit until the last dose of study drug). • 11. […] Positive test result for HIV 1 or 2 serology. • 13. Likely to need any medical or dental treatment during the study period. • 14. […] Show evidence of suicidal ideation within the last 6 months as assessed by the C-SSRS (Columbia Suicide Severity Rating Scale) at Screening. […]

`C=CCN1C[C@H](C(=O)N(CCCN(C)C)C(=O)NCC)C[C@@H]2c3cccc4[nH]cc(c34)C[C@H]21` [cabergoline, (6aR,9R,10aR)—N-[3-(dimethylamino)propyl]-N-(ethylcarbamoyl)-7-prop-2-enyl-6,6a,8,9,10,10a-hexahydro-4H-indolo[4,3-fg]quinoline-9-carboxamide]: the plasma half-life result in data set [1] is listed as “about 65 hours”.
In the case of `CCCN[C@H]1CCc2nc(N)sc2C1` [Pramipexole, (S)-6-propylamino-4,5,6,7-tetrahydro-1,3-benzothiazole-2-amine], the dose limiting toxicity entry with humans (both, human, in vivo) is on record as “gastro-intestinal adverse event in all 4 subjects”. For the same compound, the “Maximal Tolerated Dose (MTD)” value is reported as 2.0 mg with humans (subject 1001), under 0.5 mg with humans (subject 1006), 4.0 mg with humans (subject 1007) and 1.0 mg in the data set on humans (subject 1008).
